# Source: the supplement of paper PMC10307832
# Tests used:
# Assay in all cases: relative viability (nuclei count vs DMSO), 5 days (fraction); higher = more cells survive
# [1] = test system: ABC-1
# Procedure, shortened: (§1)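 Lung cancer cell lines were pin-tool dosed in 1536-well plates on the day after seeding, with either a lone drug or a fixed anchor-drug dose plus five library-drug doses (not always all listed) in √10 steps. Nuclei were counted on 4× images after 5 days. Relative viability is the ratio of treated-well to vehicle-well nuclei counts, with each value a median of duplicate plates.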
# [2] = test system: ChaGo-K-1
# Procedure, shortened: as §1
# [3] = test system: HCC-78
# Procedure, shortened: as §1
# [4] = test system: HOP-62
# Procedure, shortened: as §1
# [5] = test system: LCLC-97TM1
# Procedure, shortened: as §1
# [6] = test system: LOU-NH91
# Procedure, shortened: as §1
# [7] = test system: NCI-H1355
# Procedure, shortened: as §1
# [8] = test system: NCI-H1437
# Procedure, shortened: as §1
# [9] = test system: NCI-H1755
# Procedure, shortened: as §1
# [10] = test system: NCI-H1792
# Procedure, shortened: as §1
# [11] = test system: NCI-H2009
# Procedure, shortened: as §1
# [12] = test system: NCI-H2023
# Procedure, shortened: as §1
# [13] = test system: NCI-H2085
# Procedure, shortened: as §1
# [14] = test system: NCI-H2170
# Procedure, shortened: as §1
# [15] = test system: NCI-H23
# Procedure, shortened: as §1
# [16] = test system: NCI-H2405
# Procedure, shortened: as §1
# [17] = test system: NCI-H322M
# Procedure, shortened: as §1
# [18] = test system: NCI-H441
# Procedure, shortened: as §1
# [19] = test system: NCI-H650
# Procedure, shortened: as §1
# [20] = test system: NCI-H727
# Procedure, shortened: as §1
# [21] = test system: RERF-LC-KJ
# Procedure, shortened: as §1
# [22] = test system: SK-MES-1
# Procedure, shortened: as §1
# [23] = test system: UMC-11
# Procedure, shortened: as §1
smiles,measurement,setting,value
Cc1cnc(-c2cnc(NCCNc3ccc(C#N)cn3)nc2-c2ccc(Cl)cc2Cl)[nH]1 + CC(=O)c1c(C)c2cnc(Nc3ccc(N4CCNCC4)cn3)nc2n(C2CCCC2)c1=O [Palbociclib] (partner 0.5 µM),relative viability,[1]; first compound 0.08 µM,0.903
same,relative viability,[1]; first compound 0.253 µM,0.338
same,relative viability,[1]; first compound 0.8 µM,0.54
same,relative viability,[1]; first compound 2.53 µM,0.675
same,relative viability,[2]; first compound 0.08 µM,0.929
same,relative viability,[2]; first compound 0.253 µM,0.807
same,relative viability,[2]; first compound 0.8 µM,0.903
same,relative viability,[2]; first compound 2.53 µM,0.833
same,relative viability,[3]; first compound 0.08 µM,0.463
same,relative viability,[3]; first compound 0.253 µM,0.441
same,relative viability,[3]; first compound 0.8 µM,0.466
same,relative viability,[3]; first compound 2.53 µM,0.467
same,relative viability,[4]; first compound 0.08 µM,0.531
same,relative viability,[4]; first compound 0.253 µM,0.426
same,relative viability,[4]; first compound 0.8 µM,0.446
same,relative viability,[4]; first compound 2.53 µM,0.45
same,relative viability,[5]; first compound 0.08 µM,0.282
same,relative viability,[5]; first compound 0.253 µM,0.17
same,relative viability,[5]; first compound 0.8 µM,0.215
same,relative viability,[5]; first compound 2.53 µM,0.209
same,relative viability,[6]; first compound 0.08 µM,0.547
same,relative viability,[6]; first compound 0.253 µM,0.515
same,relative viability,[6]; first compound 0.8 µM,0.581
same,relative viability,[6]; first compound 2.53 µM,0.527
same,relative viability,[7]; first compound 0.08 µM,0.427
same,relative viability,[7]; first compound 0.253 µM,0.383
same,relative viability,[7]; first compound 0.8 µM,0.407
same,relative viability,[7]; first compound 2.53 µM,0.383
same,relative viability,[8]; first compound 0.08 µM,0.355
same,relative viability,[8]; first compound 0.253 µM,0.303
same,relative viability,[8]; first compound 0.8 µM,0.281
same,relative viability,[8]; first compound 2.53 µM,0.285
same,relative viability,[9]; first compound 0.08 µM,0.418
same,relative viability,[9]; first compound 0.253 µM,0.443
same,relative viability,[9]; first compound 0.8 µM,0.446
same,relative viability,[9]; first compound 2.53 µM,0.438
same,relative viability,[10]; first compound 0.08 µM,0.677
same,relative viability,[10]; first compound 0.253 µM,0.551
same,relative viability,[10]; first compound 0.8 µM,0.646
same,relative viability,[10]; first compound 2.53 µM,0.625
same,relative viability,[11]; first compound 0.08 µM,0.256
same,relative viability,[11]; first compound 0.253 µM,0.208
same,relative viability,[11]; first compound 0.8 µM,0.29
same,relative viability,[11]; first compound 2.53 µM,0.225
same,relative viability,[12]; first compound 0.08 µM,0.41
same,relative viability,[12]; first compound 0.253 µM,0.344
same,relative viability,[12]; first compound 0.8 µM,0.387
same,relative viability,[12]; first compound 2.53 µM,0.541
same,relative viability,[13]; first compound 0.08 µM,0.469
same,relative viability,[13]; first compound 0.253 µM,0.509
same,relative viability,[13]; first compound 0.8 µM,0.504
same,relative viability,[13]; first compound 2.53 µM,0.561
same,relative viability,[14]; first compound 0.08 µM,0.429
same,relative viability,[14]; first compound 0.8 µM,0.383
same,relative viability,[14]; first compound 2.53 µM,0.371
same,relative viability,[15]; first compound 0.08 µM,0.378
same,relative viability,[15]; first compound 0.253 µM,0.49
same,relative viability,[15]; first compound 0.8 µM,0.515
same,relative viability,[15]; first compound 2.53 µM,0.616
same,relative viability,[16]; first compound 0.08 µM,0.571
same,relative viability,[16]; first compound 0.253 µM,0.452
same,relative viability,[16]; first compound 0.8 µM,0.57
same,relative viability,[16]; first compound 2.53 µM,0.495
same,relative viability,[17]; first compound 0.08 µM,0.467
same,relative viability,[17]; first compound 0.253 µM,0.553
same,relative viability,[17]; first compound 0.8 µM,0.477
same,relative viability,[17]; first compound 2.53 µM,0.588
same,relative viability,[18]; first compound 0.08 µM,0.224
same,relative viability,[18]; first compound 0.8 µM,0.258
same,relative viability,[18]; first compound 2.53 µM,0.185
same,relative viability,[19]; first compound 0.08 µM,0.311
same,relative viability,[19]; first compound 0.253 µM,0.334
same,relative viability,[19]; first compound 0.8 µM,0.317
same,relative viability,[19]; first compound 2.53 µM,0.351
same,relative viability,[20]; first compound 0.08 µM,0.659
same,relative viability,[20]; first compound 0.253 µM,0.637
same,relative viability,[20]; first compound 0.8 µM,0.644
same,relative viability,[20]; first compound 2.53 µM,0.663
same,relative viability,[21]; first compound 0.08 µM,1.18
same,relative viability,[21]; first compound 0.253 µM,0.905
same,relative viability,[21]; first compound 0.8 µM,1.01
same,relative viability,[21]; first compound 2.53 µM,0.956
same,relative viability,[22]; first compound 0.08 µM,0.363
same,relative viability,[22]; first compound 0.253 µM,0.332
same,relative viability,[22]; first compound 0.8 µM,0.379
same,relative viability,[22]; first compound 2.53 µM,0.394
same,relative viability,[23]; first compound 0.08 µM,0.354
same,relative viability,[23]; first compound 0.253 µM,0.346
same,relative viability,[23]; first compound 0.8 µM,0.364
same,relative viability,[23]; first compound 2.53 µM,0.401
